Experiments:
[1] = test system: Vibrio percolans +2 × 10^5 units/ml. penicillinase MB-1272; experiment: In vitro antibacterial spectrum profile, agar diffusion, with penicillinase; format: cell-based; details: Comamonas terrigena, read-out: Inhib. Zone Diam.
[2] = test system: Serratia marcesens ATCC 990; experiment: In vitro antibacterial spectrum profile, agar diffusion; format: cell-based; details: read-out: Inhib. Zone Diam.
[3] = test system: Klebsiella pneumoniae MB-1264; experiment: as above; format: cell-based; details: read-out: Inhib. Zone Diam.
Escherichia coli MB-1418 = experiment: as above; format: cell-based; details: read-out: Inhib. Zone Diam.
[4] = test system: Difco penicillinase and lactamase(s) produced by a cephalosporin C-resistant strain of Vibrio percolans (MB-2566); experiment: Inactivation by penicillinase and lactamase(s), from the antibiotic spectra; format: cell-based; details: judged from the spectra of Table III
Description: The test to determine the antibiotic spectrum profile of antibiotic 890A2 is carried out by saturating 1/4 inch diameter paper discs in a solution of antibiotic 890A2 in 5% methanol at a concentration of 5 μg./ml.; air drying the saturated paper discs and placing them on the surface of 100 × 15 mm. petri plates containing 5 ml. of seeded nutrient agar plus 0.2% yeast extract.
The test to determine the antibiotic spectrum profile of antibiotic 890A5 is carried out by application of a 0.015 ml. droplet of a 33 μg./ml. aqueous solution of the antibiotic on the surface of a 100 × 15 mm. petri plate containing 5 ml. of seeded nutrient agar plus 0.2% yeast extract.
The spectra of antibiotic 890A2 and 890A5 are quite similar, except for the resistance of 890A5 to inactivation by Difco penicillinase and by lactamase(s) produced by a cephalosporin C-resistant strain of Vibrio percolans (MB-2566).

[5] = test system: Vibrio percolans ATCC 8461; experiment: Bioassay I, agar plate disc-diffusion potency per HAEA308 unit; format: cell-based; details: Vibrio percolans ATCC 8461, Bioassay I
Description: An agar plate disc-diffusion method is employed using either Vibrio percolans ATCC 8461 or Salmonella gallinarum MB-1287 as tester organism. A purified sample of antibiotic 890A1 is used as standard. Antibiotic 890A1 is prepared according to the procedure set forth in Example 5.
Plates containing Vibrio percolans ATCC 8461 are prepared as follows:
A lyophilized culture of Vibrio percolans ATCC 8461 is suspended in 15 ml. of a sterilized medium containing 8 g./liter of Difco Nutrient Broth and 2 g./liter of yeast extract in distilled water "nutrient broth-yeast extract" (herein after designated NBYE). The culture is incubated overnight on a rotary shaker at 28° C. […]
Filter paper discs of one-half inch diameter are dipped into the solution to be assayed, and are placed on the agar. […] The diameter of the zone of inhibition is measured after appropriate incubation (9-18 hours at 37° C. for Salmonella gallinarum MB-1287 or 12-24 hours at 25° C. for Vibrio percolans ATCC 8461.) If necessary, dilutions of the solutions to be assayed are made in 0.05M potassium phosphate buffer, pH 7.4 "potassium phosphate buffer" (hereinafter referred to as KPB), or in deionized water.
Calculations of potencies proceed as follows: a slope is determined by measuring the zone diameters of a solution of antibiotic 890A2 or 890A5 and of a four-fold dilution (in KPB) of this solution. […]

Solubility in water = format: physicochemical; details: sodium salt, white powder as lyophilized
[6] = Stability during desalting on Sephadex G-10; format: physicochemical; details: pooled fractions at pH 4.1; A308/A260 ratio of 0.76
Description: Fractions 112 through 130 containing 890A2, are concentrated under reduced pressure to 5.5 ml. and the concentrate is applied to a column (2.15 × 70 cm.) of Sephadex G-10, and eluted with deionized water at a flow rate of 1 ml. per minute. Fractions of 2.85 ml. each are collected. The bioactivity as determined by assay against Salmonella gallinarum MB1287 appears in fractions 60 through 98. Fractions 78 through 90 have the highest A308 /A260 ratios, and these are pooled for lyophilization. The pH of the pooled fractions is 4.1, and is adjusted to 7.8 by addition of 8 μl of 1M ammonia.

Compound	zone of inhibition at 33 µg/mL ([1]; 890A5 33 μg./ml., 0.015 ml. droplet) [mm]	zone of inhibition at 33 µg/mL ([2]; ATCC990, 890A5 33 μg./ml., 0.015 ml. droplet) [mm]	zone of inhibition at 33 µg/mL ([3]; MB1264, 890A5 33 μg./ml., 0.015 ml. droplet) [mm]	zone of inhibition at 33 µg/mL (Escherichia coli MB-1418; MB1418, 890A5 33 μg./ml., 0.015 ml. droplet) [mm]	inactivation by Difco penicillinase and by lactamase(s) of Vibrio percolans MB-2566 [4]	antibiotic potency (ratio of bioactivity to HAEA308) [5] [units per HAEA308 unit]	zone of inhibition at 5 µg/mL ([1]; 890A2 5 μg./ml., 1/4 inch paper disc) [mm]	solubility in water (Solubility in water)	zone of inhibition at 5 µg/mL ([2]; ATCC990, 890A2 5 μg./ml., 1/4 inch paper disc) [mm]	zone of inhibition at 5 µg/mL ([3]; MB1264, 890A2 5 μg./ml., 1/4 inch paper disc) [mm]	zone of inhibition at 5 µg/mL (Escherichia coli MB-1418; MB1418, 890A2 5 μg./ml., 1/4 inch paper disc) [mm]	stability during Sephadex G-10 desalting [6]
CC(=O)NC=CSC1=C(C(=O)O)N2C(=O)C(C(C)O)C2C1 (stereo not drawn) [Antibiotic 890A5]	40	29	27	27	resistance	12						
CC(=O)NC=CSC1=C(C(=O)O)N2C(=O)C(C(C)O)C2C1 (stereo not drawn) [Antibiotic 890A2]							7	very soluble in water	23	31	32	substantial degradation
